Test results reported in patent US8765721B2, “Composition comprising phosphatidyl serine and an antigen or allergen and the use thereof” (Vaccine Technology Limited, priority 2004, dated 2014).

Legend:
Assay type in all cases: in vivo, rat
IgG2b = experiment: Ovalbumin-specific IgG2b ELISA of serum of immunised rats; details: pooled group serum
IgA [1] = experiment: Ovalbumin-specific IgA ELISA of serum of immunised rats; details: pooled group serum
IgA [2] = experiment: as above; details: Day 1; 50 ug with 20 μg Ova s.c. on days 21 and 42; pooled group serum
IgE [3] = experiment: Ovalbumin-specific IgE ELISA of serum of immunised rats; details: pooled group serum
IgG1 = experiment: Ovalbumin-specific IgG1 ELISA of serum of immunised rats; details: pooled group serum
IgE [4] = experiment: Ovalbumin-specific IgE ELISA of serum of immunised rats; details: Day 1; 250 ug with 20 μg Ova s.c. on days 21 and 42; pooled group serum
IgG2a = experiment: Ovalbumin-specific IgG2a ELISA of serum of immunised rats; details: pooled group serum
[5] = Day 1, 50 ug with 20 μg Ova s.c. on days 21 and 42
[6] = Day 1, 250 ug with 20 μg Ova s.c. on days 21 and 42
[7] = Day 15, 50 ug with 20 μg Ova s.c. on days 21 and 42
[8] = Day 15, 250 ug with 20 μg Ova s.c. on days 21 and 42
[9] = Day 22, 50 ug with 20 μg Ova s.c. on days 21 and 42
[10] = Day 22, 250 ug with 20 μg Ova s.c. on days 21 and 42
[11] = Day 29, 50 ug with 20 μg Ova s.c. on days 21 and 42
[12] = Day 29, 250 ug with 20 μg Ova s.c. on days 21 and 42
[13] = Day 36, 50 ug with 20 μg Ova s.c. on days 21 and 42
[14] = Day 36, 250 ug with 20 μg Ova s.c. on days 21 and 42
[15] = Day 43, 50 ug with 20 μg Ova s.c. on days 21 and 42
[16] = Day 43, 250 ug with 20 μg Ova s.c. on days 21 and 42
[17] = Day 50, 50 ug with 20 μg Ova s.c. on days 21 and 42
[18] = Day 50, 250 ug with 20 μg Ova s.c. on days 21 and 42
[19] = Day 57, 50 ug with 20 μg Ova s.c. on days 21 and 42
[20] = Day 57, 250 ug with 20 μg Ova s.c. on days 21 and 42
[21] = Day 64, 50 ug with 20 μg Ova s.c. on days 21 and 42
[22] = Day 64, 250 ug with 20 μg Ova s.c. on days 21 and 42

CCCCC/C=C\C/C=C\C/C=C\C/C=C\CCCC(=O)O[C@H](COC(=O)CCCCCCCCCCCCCCCCC)COP(=O)(O)OC[C@H](N)C(=O)O [VT003, Stearoyl arachadonoyl phosphatidyl serine]
IgG2b endpoint titer (IgG2b; [5]): 0
IgG2b endpoint titer (IgG2b; [6]): 0
IgG2b endpoint titer (IgG2b; [7]): 40
IgG2b endpoint titer (IgG2b; [8]): 40
IgG2b endpoint titer (IgG2b; [9]): 320
IgG2b endpoint titer (IgG2b; [10]): 80
IgG2b endpoint titer (IgG2b; [11]): 40
IgG2b endpoint titer (IgG2b; [12]): 80
IgG2b endpoint titer (IgG2b; [13]): 640
IgG2b endpoint titer (IgG2b; [14]): 640
IgG2b endpoint titer (IgG2b; [15]): 320
IgG2b endpoint titer (IgG2b; [16]): 1280
IgG2b endpoint titer (IgG2b; [17]): 160
IgG2b endpoint titer (IgG2b; [18]): 320
IgG2b endpoint titer (IgG2b; [19]): 640
IgG2b endpoint titer (IgG2b; [20]): 1280
IgG2b endpoint titer (IgG2b; [21]): 640
IgG2b endpoint titer (IgG2b; [22]): 1280
IgA endpoint titer (IgA [1]; [6]): 0
IgA endpoint titer (IgA [1]; [7]): 0
IgA endpoint titer (IgA [1]; [8]): 0
IgA endpoint titer (IgA [1]; [9]): 0
IgA endpoint titer (IgA [1]; [10]): 0
IgA endpoint titer (IgA [1]; [11]): 40
IgA endpoint titer (IgA [1]; [12]): 40
IgA endpoint titer (IgA [1]; [13]): 640
IgA endpoint titer (IgA [1]; [14]): 160
IgA endpoint titer (IgA [1]; [15]): 640
IgA endpoint titer (IgA [1]; [16]): 320
IgA endpoint titer (IgA [1]; [17]): 1280
IgA endpoint titer (IgA [1]; [18]): 640
IgA endpoint titer (IgA [1]; [19]): 640
IgA endpoint titer (IgA [1]; [20]): 640
IgA endpoint titer (IgA [1]; [21]): 640
IgA endpoint titer (IgA [1]; [22]): 1280
IgA endpoint titer (IgA [2]): 0
IgE endpoint titer (IgE [3]; [5]): 0
IgE endpoint titer (IgE [3]; [7]): 0
IgE endpoint titer (IgE [3]; [8]): 0
IgE endpoint titer (IgE [3]; [9]): 0
IgE endpoint titer (IgE [3]; [10]): 0
IgE endpoint titer (IgE [3]; [11]): 0
IgE endpoint titer (IgE [3]; [12]): 0
IgE endpoint titer (IgE [3]; [13]): 0
IgE endpoint titer (IgE [3]; [14]): 0
IgE endpoint titer (IgE [3]; [15]): 0
IgE endpoint titer (IgE [3]; [16]): 0
IgE endpoint titer (IgE [3]; [17]): 320
IgE endpoint titer (IgE [3]; [18]): 80
IgE endpoint titer (IgE [3]; [19]): 80
IgE endpoint titer (IgE [3]; [20]): 40
IgE endpoint titer (IgE [3]; [21]): 40
IgE endpoint titer (IgE [3]; [22]): 20
IgG1 endpoint titer (IgG1; [5]): 0
IgG1 endpoint titer (IgG1; [6]): 0
IgG1 endpoint titer (IgG1; [7]): 320
IgG1 endpoint titer (IgG1; [8]): 320
IgG1 endpoint titer (IgG1; [9]): 2560
IgG1 endpoint titer (IgG1; [10]): 2560
IgG1 endpoint titer (IgG1; [11]): 20480
IgG1 endpoint titer (IgG1; [12]): 20480
IgG1 endpoint titer (IgG1; [13]): 20480
IgG1 endpoint titer (IgG1; [14]): 20480
IgG1 endpoint titer (IgG1; [15]): 20480
IgG1 endpoint titer (IgG1; [16]): 10240
IgG1 endpoint titer (IgG1; [17]): 20480
IgG1 endpoint titer (IgG1; [18]): 10240
IgG1 endpoint titer (IgG1; [19]): 10240
IgG1 endpoint titer (IgG1; [20]): 10240
IgG1 endpoint titer (IgG1; [21]): 40960
IgG1 endpoint titer (IgG1; [22]): 20480
IgE endpoint titer (IgE [4]): 0
IgG2a endpoint titer (IgG2a; [5]): 0
IgG2a endpoint titer (IgG2a; [6]): 0
IgG2a endpoint titer (IgG2a; [7]): 40
IgG2a endpoint titer (IgG2a; [8]): 40
IgG2a endpoint titer (IgG2a; [9]): 1280
IgG2a endpoint titer (IgG2a; [10]): 1280
IgG2a endpoint titer (IgG2a; [11]): 2560
IgG2a endpoint titer (IgG2a; [12]): 2560
IgG2a endpoint titer (IgG2a; [13]): 10240
IgG2a endpoint titer (IgG2a; [14]): 5120
IgG2a endpoint titer (IgG2a; [15]): 10240
IgG2a endpoint titer (IgG2a; [16]): 5120
IgG2a endpoint titer (IgG2a; [17]): 20480
IgG2a endpoint titer (IgG2a; [18]): 20480
IgG2a endpoint titer (IgG2a; [19]): 10240
IgG2a endpoint titer (IgG2a; [20]): 10240
IgG2a endpoint titer (IgG2a; [21]): 20480
IgG2a endpoint titer (IgG2a; [22]): 20480
